Laboratory results: patent publication US11236052B2, “Aminobenzimidazole derivatives, treatments, and methods of inhibiting histone deacetylase” (TRANSLATIONAL DRUG DEVELOPMENT, LLC, priority 2017, dated 2022)
Like-named read-outs stand apart in the source and are kept apart here.

Columns and labels:
MFE280 = test: CellTiter-Glo cell viability assay, MFE280; format: cell-based; settings: Uterine; for IC50: Homo sapiens, MFE-280, MFE280, 72 hours
Procedure: (§1) Cell Viability Assay—Cell viability was measured by the CellTiter-Glo® cell viability assay Promega (Madison, Wis.). The CellTiter-Glo® Luminescent Cell Viability Assay is a homogeneous method to determine the number of viable cells in culture based on quantitation of the ATP present, which signals the presence of metabolically active cells. Following treatment, CellTiter-Glo® is added to treatment wells and incubated at 37° C. luminescence values were measured at using a Molecular Devices Spectramax microplate reader.
(§2) Single Agent Studies—Cells were grown to 70% confluency, trypsinized, counted, and seeded in 96 well flat-bottom plates at a final concentration of 2.5×10^3-5×10^3 cells/well (Day 0). Cells were allowed to incubate in growth media for 24 hours. Treatment with the test agents began on Day 1 and continued for 72 hours. At the 72-hour time point, treatment-containing media was removed. Viable cell numbers are quantified by the CellTiter-Glo® cell viability assay as described above. Experiments were run with triplicate concentrations to determine growth inhibitory activity. Results from these studies were used to calculate an IC50 value (concentration of drug that inhibits cell growth by 50 percent of control) for each compound.
(§3) Data Collection—For single agent and combination studies, data from each experiment was collected and expressed as % Cell Growth using the following calculation: % Cell Growth=(ftest/fvehicle)×100
(§4) Where ftest is the luminescence of the tested sample, and fvehicle is the luminescence of the vehicle in which the drug is dissolved. Dose response graphs and IC50 values were generated using Prism 6 software (GraphPad).

GIST882 = test: CellTiter-Glo cell viability assay, GIST882; format: cell-based; settings: GIST; for IC50: Homo sapiens, GIST882, 72 hours
Procedure: as §1, §2, §3, §4

HDAC6 = HDAC6 (Homo sapiens (Human), UniProt Q9UBN7); test: In vitro HDAC enzyme inhibition, mobility shift; format: biochemical; settings: purified enzyme
Sequence of HDAC6 (Q9UBN7 whole entry): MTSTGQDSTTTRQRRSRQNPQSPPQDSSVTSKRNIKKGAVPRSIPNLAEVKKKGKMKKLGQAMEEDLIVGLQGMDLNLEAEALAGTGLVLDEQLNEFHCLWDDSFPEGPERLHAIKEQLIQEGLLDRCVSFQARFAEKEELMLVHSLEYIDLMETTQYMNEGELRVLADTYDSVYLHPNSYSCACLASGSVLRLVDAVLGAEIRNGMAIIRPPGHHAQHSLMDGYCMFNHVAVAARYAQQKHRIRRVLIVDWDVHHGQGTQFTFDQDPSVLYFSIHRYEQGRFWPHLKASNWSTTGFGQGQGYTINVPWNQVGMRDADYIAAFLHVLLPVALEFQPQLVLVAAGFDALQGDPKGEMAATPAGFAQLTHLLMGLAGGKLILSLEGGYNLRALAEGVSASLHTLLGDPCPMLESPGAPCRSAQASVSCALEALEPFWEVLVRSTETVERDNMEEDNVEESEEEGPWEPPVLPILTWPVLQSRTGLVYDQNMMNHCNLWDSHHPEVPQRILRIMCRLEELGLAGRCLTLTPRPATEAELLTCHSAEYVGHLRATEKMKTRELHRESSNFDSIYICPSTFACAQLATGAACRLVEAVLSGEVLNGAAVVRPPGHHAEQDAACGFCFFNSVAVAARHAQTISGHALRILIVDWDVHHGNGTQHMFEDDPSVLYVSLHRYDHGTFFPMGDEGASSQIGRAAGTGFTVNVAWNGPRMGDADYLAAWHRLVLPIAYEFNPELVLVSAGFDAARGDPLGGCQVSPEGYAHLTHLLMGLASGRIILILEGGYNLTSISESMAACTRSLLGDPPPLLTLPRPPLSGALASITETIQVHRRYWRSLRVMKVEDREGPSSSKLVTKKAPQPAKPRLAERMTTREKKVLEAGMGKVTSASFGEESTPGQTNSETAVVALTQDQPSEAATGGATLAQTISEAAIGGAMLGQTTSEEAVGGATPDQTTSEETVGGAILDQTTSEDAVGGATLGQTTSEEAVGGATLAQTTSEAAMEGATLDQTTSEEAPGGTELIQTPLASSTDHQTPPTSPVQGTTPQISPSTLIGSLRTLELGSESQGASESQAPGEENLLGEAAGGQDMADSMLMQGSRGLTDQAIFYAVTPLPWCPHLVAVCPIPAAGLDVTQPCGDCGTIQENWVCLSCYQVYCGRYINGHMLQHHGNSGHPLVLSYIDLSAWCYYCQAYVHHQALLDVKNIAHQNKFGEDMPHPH
Procedure: (§5) Purified histone deacetylase enzymes 1, 3, 6, 10 were incubated with fluorescently labeled substrate and test compounds in a standardized reaction mixture in 384 well plates. Upon termination of the reaction, samples were introduced onto microfluidic chips. Samples migrate through channels in the chips and product and substrate are separated based on the difference in their charge and mass (electrophoretic mobility shift). Enzyme activity is measured by direct comparison of the fluorescence in the product and substrate peaks and the results presented in Table 4.

HDAC1 = HDAC1 (Homo sapiens (Human), UniProt Q13547); test: In vitro HDAC enzyme inhibition, mobility shift; format: biochemical; settings: purified enzyme
Sequence of HDAC1 (Q13547 whole entry): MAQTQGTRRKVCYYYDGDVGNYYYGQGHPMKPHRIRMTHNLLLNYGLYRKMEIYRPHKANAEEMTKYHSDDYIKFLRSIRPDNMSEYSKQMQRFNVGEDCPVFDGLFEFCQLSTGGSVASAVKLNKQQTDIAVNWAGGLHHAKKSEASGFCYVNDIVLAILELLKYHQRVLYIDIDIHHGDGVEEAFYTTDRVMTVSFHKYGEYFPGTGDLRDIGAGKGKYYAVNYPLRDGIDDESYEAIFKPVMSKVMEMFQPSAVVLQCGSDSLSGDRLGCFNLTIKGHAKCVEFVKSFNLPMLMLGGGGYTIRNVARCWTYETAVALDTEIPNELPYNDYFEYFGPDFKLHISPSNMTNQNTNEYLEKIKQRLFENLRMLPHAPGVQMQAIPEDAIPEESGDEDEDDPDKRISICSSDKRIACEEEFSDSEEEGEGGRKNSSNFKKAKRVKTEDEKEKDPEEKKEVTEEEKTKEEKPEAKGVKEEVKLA
Procedure: as §5

HDAC3 = HDAC3 (Homo sapiens (Human), UniProt O15379); test: In vitro HDAC enzyme inhibition, mobility shift; format: biochemical; settings: purified enzyme
Sequence of HDAC3 (O15379 whole entry): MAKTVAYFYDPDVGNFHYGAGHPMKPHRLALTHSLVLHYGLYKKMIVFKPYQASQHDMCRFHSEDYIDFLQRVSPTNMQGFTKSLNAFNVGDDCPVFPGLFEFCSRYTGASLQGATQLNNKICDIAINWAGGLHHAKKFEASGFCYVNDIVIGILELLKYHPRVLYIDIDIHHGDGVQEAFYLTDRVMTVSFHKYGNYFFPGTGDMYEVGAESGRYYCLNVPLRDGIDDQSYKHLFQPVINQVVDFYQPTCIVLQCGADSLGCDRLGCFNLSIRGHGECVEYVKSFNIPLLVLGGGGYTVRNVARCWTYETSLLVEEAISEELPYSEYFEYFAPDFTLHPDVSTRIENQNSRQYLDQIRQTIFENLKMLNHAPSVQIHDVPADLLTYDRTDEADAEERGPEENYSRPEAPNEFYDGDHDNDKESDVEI
Sequence of HDAC3 (Q9Y618 395-489 partner): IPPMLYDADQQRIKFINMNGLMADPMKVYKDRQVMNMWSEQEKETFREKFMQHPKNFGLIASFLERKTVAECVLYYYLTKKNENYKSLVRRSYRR
Procedure: as §5

HDAC10 = HDAC10 (Homo sapiens (Human), UniProt Q969S8); test: In vitro HDAC enzyme inhibition, mobility shift; format: biochemical; settings: purified enzyme
Sequence of HDAC10 (Q969S8 whole entry): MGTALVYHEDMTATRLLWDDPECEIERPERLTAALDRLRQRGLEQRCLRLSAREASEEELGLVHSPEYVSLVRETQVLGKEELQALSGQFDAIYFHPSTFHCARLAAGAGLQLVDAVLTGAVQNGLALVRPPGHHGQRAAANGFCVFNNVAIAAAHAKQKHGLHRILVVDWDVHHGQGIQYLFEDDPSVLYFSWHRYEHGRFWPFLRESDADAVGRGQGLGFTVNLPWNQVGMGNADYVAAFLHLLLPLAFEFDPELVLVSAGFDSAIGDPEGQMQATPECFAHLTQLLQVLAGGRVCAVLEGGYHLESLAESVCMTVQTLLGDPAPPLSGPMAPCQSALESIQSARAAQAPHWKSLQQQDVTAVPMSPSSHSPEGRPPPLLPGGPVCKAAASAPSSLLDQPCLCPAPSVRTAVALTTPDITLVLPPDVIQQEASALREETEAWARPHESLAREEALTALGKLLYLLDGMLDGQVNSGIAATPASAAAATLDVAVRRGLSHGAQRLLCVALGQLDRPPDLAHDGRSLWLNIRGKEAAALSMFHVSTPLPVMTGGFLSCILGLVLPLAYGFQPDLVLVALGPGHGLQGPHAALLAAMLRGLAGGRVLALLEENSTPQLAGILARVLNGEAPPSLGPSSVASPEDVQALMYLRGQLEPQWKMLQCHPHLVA
Procedure: as §5

H1650 = test: CellTiter-Glo cell viability assay, H1650; format: cell-based; settings: NSCLC; for IC50: Homo sapiens, NCI-H1650, H1650, 72 hours
Procedure: as §1, §2, §3, §4

RPMI-8226 = test: CellTiter-Glo cell viability assay, RPMI-8226; format: cell-based; settings: Myeloma; for IC50: Homo sapiens, RPMI-8226, 72 hours
Procedure: as §1, §2, §3, §4

[1] = Pharmacokinetic studies in the mouse; format: in vivo; settings: for Vd: read-out: Vss; for Vd/F: read-out: Vz/F obs
Procedure: Plasma samples were collected from healthy mice and analyzed for levels of compound ID #1, ID #2, and ID #3 and reported in Table 5. In brief, compounds were individually and accurately weighed out to produce a stock solution in Dimethyl-sulfoxide (DMSO) at a concentration of 2 mg/mL and stored at −20° C. From the stock solution, a working stock was prepared by diluting it in Methanol-Water 50:50 (v/v) at 20 μg/mL for calibration curve preparation and stored at 4° C. Standards used for quantitation and quality control samples (QC's) were prepared on the same day of sample processing using blank plasma obtained from non-treated mice. For each analyte, standards were prepared through serial dilution of the working stock at concentrations of 0.1, 0.5, 1.0, 10, 50, 100, 500 and 1000 ng/mL; QC's were prepared at intermediate concentrations of 0.75, 7.5, 75 and 750 ng/mL. Plasma samples were stored at −80° C. until ready for analysis and then placed on ice for thawing. An aliquot of 20 μL for samples, standards and QC's, were transferred into a 96-well extraction plate according to a pre-defined layout. Appropriate volume of Methanol-Formic Acid 99.9-0.1 containing internal standard (Verapamil at 25 ng/mL) was added to each well and samples were extracted under vacuum. Eluent was then transferred into a LCMS plate for analysis using a suitable column for separation and MRM detection. Concentration of analytes was calculated based on the calibration curve and analyzed for pharmacokinetic parameters by using Non-compartmental analysis (NCA) using WinNonlin Phoenix software. Parameters such as Cmax, Tmax, half-life, AUC(0-last), AUC(0-∞), volume of distribution (Vss) and clearance (Cl/F) were reported.
The analogs were tested for pharmacokinetic analysis in the mouse with doses of 1 mg/kg for intravenous (IV) route and 5 mg/kg for oral (P0) route. […] Overall exposure following IV dose also favored compound ID #1 with AUCO-∞ 1488.1 hr*ng/mL whereas compound ID #2 and ID #3 were 329.1 and 1193.7 hr*ng/mL, respectively.

ES2 = test: CellTiter-Glo cell viability assay, ES2; format: cell-based; settings: Ovarian; for IC50: Homo sapiens, ES-2, ES2, 72 hours
Procedure: as §1, §2, §3, §4

[2] = plasma, 1.0 mg/kg IV, read-out: Half-life (converted)
[3] = plasma, 5.0 mg/kg PO, read-out: Half-life (converted)
[4] = plasma, iv, 1 mg/kg, 1.0 mg/kg IV, read-out: AUC0-∞
[5] = plasma, iv, 1 mg/kg, 1.0 mg/kg IV, read-out: Cmax
[6] = plasma, po, 5 mg/kg, 5.0 mg/kg PO, read-out: AUC0-∞
[7] = plasma, po, 5 mg/kg, 5.0 mg/kg PO, read-out: Cmax
[8] = plasma, po, 5 mg/kg, 5 mg/kg oral, read-out: AUC0-∞ (overall exposure following oral doses)

SMILES: O=C(NO)c1ccc(Nc2nc3ccccc3n2CC2CCCCC2)cc1 [ID #1, 4-((1-(cyclohexylmethyl)-1H-benzo[d]imidazol-2-yl)amino)-N-hydroxybenzamide]
- IC50 (MFE280): 5010 nM
- Improvement ID #1 over ID #3 Percent (MFE280; MFE280): 48.40%
- Improvement ID #1 over ID #3 fold (MFE280; MFE280): 1.94 fold
- Improvement ID #1 over ID #3 Percent (GIST882; GIST882): 67.66%
- Improvement ID #1 over ID #3 fold (GIST882; GIST882): 3.09 fold
- IC50 (GIST882): 5750 nM
- IC50 (HDAC6): 0.0064 µM
- IC50 (HDAC1): 0.13 µM
- IC50 (HDAC3): 0.019 µM
- IC50 (HDAC10): 0.137 µM
- IC50 (H1650): 6610 nM
- Improvement ID #1 over ID #3 Percent (H1650; H1650): 63.68%
- Improvement ID #1 over ID #3 fold (H1650; H1650): 2.75 fold
- IC50 (RPMI-8226): 660 nM
- Improvement ID #1 over ID #3 Percent (RPMI-8226; RPMI-8226): 56.29%
- Improvement ID #1 over ID #3 fold (RPMI-8226; RPMI-8226): 2.29 fold
- AUC0-∞ ([1]; 1.0 mg/kg IV): 1488.05 ng·h/mL
- AUC % Extrap ([1]; 1.0 mg/kg IV): 0.25%
- Cl/F obs ([1]; 1.0 mg/kg IV): 11.5 mL/min/kg
- Rsq (>0.85) ([1]; 1.0 mg/kg IV): 0.97
- half-life ([1]; 1.0 mg/kg IV): 3.70 h
- AUC % Extrap ([1]; 5.0 mg/kg PO): 0.75%
- Cmax ([1]; 5.0 mg/kg PO): 757.43 ng/mL
- Rsq (>0.85) ([1]; 5.0 mg/kg PO): 0.99
- AUC(0-t) ([1]; plasma, 1.0 mg/kg IV): 1440 ng·h/mL
- Tmax ([1]; plasma, 1.0 mg/kg IV): 0.08 h
- half-life [1, 2]: 3.7 h
- Vd ([1]; plasma, 1.0 mg/kg IV): 1.21 L/kg
- AUC(0-t) ([1]; plasma, 5.0 mg/kg PO): 3220 ng·h/mL
- CL/F ([1]; plasma, 5.0 mg/kg PO): 21 mL/min/kg
- Tmax ([1]; plasma, 5.0 mg/kg PO): 0.5 h
- bioavailability ([1]; plasma, 5.0 mg/kg PO): 53.4%
- half-life [1, 3]: 3.39 h
- Vd/F ([1]; plasma, 5.0 mg/kg PO): 6.16 L/kg
- AUC(0-inf) [1, 4]: 1490 ng·h/mL
- Cmax [1, 5]: 1290 ng/mL
- AUC(0-inf) [1, 6]: 3970 ng·h/mL
- Cmax [1, 7]: 757 ng/mL
- AUC(0-inf) [1, 8]: 3970 ng·h/mL
- IC50 (ES2): 3980 nM
- Improvement ID #1 over ID #3 Percent (ES2; ES2): 69.80%
- Improvement ID #1 over ID #3 fold (ES2; ES2): 3.31 fold

SMILES: O=C(NO)c1ccc(Nc2nc3ccccc3n2C2CCCCCC2)cc1 [ID #3, 4-((1-cycloheptyl-1H-benzo[d]imidazol-2-yl)amino)-N-hydroxybenzamide]
- IC50 (MFE280): 9710 nM
- IC50 (GIST882): 17800 nM
- IC50 (HDAC6): 0.0145 µM
- IC50 (HDAC1): 0.445 µM
- IC50 (HDAC3): 0.079 µM
- IC50 (HDAC10): 3.12 µM
- IC50 (H1650): 18200 nM
- IC50 (RPMI-8226): 1510 nM
- AUC0-∞ ([1]; 1.0 mg/kg IV): 1193.68 ng·h/mL
- AUC % Extrap ([1]; 1.0 mg/kg IV): 0.16%
- Cl/F obs ([1]; 1.0 mg/kg IV): 14 mL/min/kg
- Rsq (>0.85) ([1]; 1.0 mg/kg IV): 0.92
- half-life ([1]; 1.0 mg/kg IV): 2.37 h
- AUC % Extrap ([1]; 5.0 mg/kg PO): 0.38%
- Cmax ([1]; 5.0 mg/kg PO): 348.57 ng/mL
- Rsq (>0.85) ([1]; 5.0 mg/kg PO): 1.00
- AUC(0-t) ([1]; plasma, 1.0 mg/kg IV): 1190 ng·h/mL
- Tmax ([1]; plasma, 1.0 mg/kg IV): 0.08 h
- half-life [1, 2]: 2.37 h
- Vd ([1]; plasma, 1.0 mg/kg IV): 1.96 L/kg
- AUC(0-t) ([1]; plasma, 5.0 mg/kg PO): 1640 ng·h/mL
- CL/F ([1]; plasma, 5.0 mg/kg PO): 50.5 mL/min/kg
- Tmax ([1]; plasma, 5.0 mg/kg PO): 0.25 h
- bioavailability ([1]; plasma, 5.0 mg/kg PO): 27.6%
- half-life [1, 3]: 2.99 h
- Vd/F ([1]; plasma, 5.0 mg/kg PO): 13.1 L/kg
- AUC(0-inf) [1, 4]: 1190 ng·h/mL
- Cmax [1, 5]: 830 ng/mL
- AUC(0-inf) [1, 6]: 1650 ng·h/mL
- Cmax [1, 7]: 349 ng/mL
- AUC(0-inf) [1, 8]: 1650 ng·h/mL
- IC50 (ES2): 13200 nM
